Measured values published in paper PMC3214022, “Plasmodium falciparum Parasites Are Killed by a Transition State Analogue of Purine Nucleoside Phosphorylase in a Primate Animal Model” (PLoS ONE, 2011).
“And” between values parts separate entries of the source, which are not always exact repeats. Equal values may be shown once.

Experiment: Weights, CBC and blood chemistry, Table S1 sheet PK (pharmacokinetic study)
Format: in vivo, Aotus lemurinus lemurinus
Description: Laboratory bred Aotus lemurinus lemurinus monkeys (0.75–0.89 kg) were maintained as described. […] Blood samples were collected before the treatment started (t = 0), 0.05 h, 0.5 h, 1 h, 2 h, 6 h, 24 h, 48 h, and 6, 12 and 18 days after the first dose from each monkey and processed as described below. Pharmacokinetic parameters were calculated using PKSolver. For efficacy studies, Aotus monkeys were inoculated intravenously with 5×10^6 parasites of the FVO strain of P. falciparum in an approved treatment protocol. […] Parasitaemia was determined by Giemsa-stained thick blood smears prepared daily from the marginal ear vein [41]. Blood samples were collected from each monkey and transferred to tubes containing lithium heparin, centrifuged and both plasma and blood cells were frozen at −80 °C until analysis. Animals received a physical examination and blood chemistry profiles were monitored after treatment as described previously. Any monkey not responding appropriately to treatment was cured of its infection with mefloquine (40 mg kg^−1). […] The day of clearance is defined as the first of three consecutive days in which the thick blood films are parasite negative. The day of recrudescence is the first of three consecutive days of positive thick blood films after a period of clearance. Suppression is defined as a transient decrease in the parasite count post-treatment without clearance.

## Nc1nc2c(CN3CC(O)C(CO)C3)c[nH]c2c(=O)[nH]1 (stereo not shown) [BCX4945, 4′-deaza-1′-aza-2′-deoxy-1′-(9-methylene)-Immucillin-G]
IV 10 mg/kg once a day/3 days, monkeys 21014 (c1-5), 21007 (c6-10), 22014 (c11-15), 22004 (c16-20), days -2, 6, 12, 18 (22004: 19), 79, 10 mg/kg, day 12
  Creatine: 0.55 mg/dL and 0.532 mg/dL
IV 10 mg/kg once a day/3 days, monkeys 21014 (c1-5), 21007 (c6-10), 22014 (c11-15), 22004 (c16-20), days -2, 6, 12, 18 (22004: 19), 79, 10 mg/kg, day -2
  Creatine: <0.5 mg/dL and 0.5 mg/dL
oral, one dose 50 mg/kg, monkey 23015, days -2, 6, 12, 19, 79 = c1-c5, 50 mg/kg
  Blood Urea Nitrogen: <10.0 mg/dL
oral, three doses 50 mg/kg once a day/3 days, monkey 23029, days -2, 6, 12, 19, 79 = c11-c15
  Creatine: <0.5 mg/dL
